# Reference: patent US20130059783A1, “COMPOSITIONS AND METHODS FOR EXPANDING BFU-E CELLS” (priority 2010, published 2013)
# Assays:
# Assay type in all cases: cell-based, mouse
# [1] = system: BFU-E cells; assay: Serum free erythroid liquid expansion (SFELE) progenitor growth assay of sorted BFU-E cells; details: for Total cell expansion from 1000 BFU-E cells: CD71 10% low BFU-E cells, SFELE medium
# Description: FIGS. 1A-1F. […] Error bars show one standard deviation. […] Error bars show one standard deviation. […] Shown is the fraction of c-kit+ cells after 72 hours. […] Cell numbers in each clone were estimated under the microscope on Day 8.
# FIGS. 3A-3B. […] The experimental protocol was similar to that used in FIGS. 1A and B except that the CFU-E and BFU-E cells were purer (CD71 and CD24a^20% high and CD71 and CD24a^10% low, respectively). […] (A) Proliferation of sorted CFU-E cells. […] Error bars show one standard deviation. (B) Proliferation of sorted BFU-E cells. […] Error bars show one standard deviation.
# FIG. 4. […] Cells were counted from day 4 until the day cell counts dropped.
# (A) The total number of cells formed from 1000 BFU-E cells at different time points. […] Standard deviation between four separate biological experiments is shown in parenthesis (n/d=not determined).
# We developed a modified version of the serum free erythroid liquid expansion culture (SFELE) medium described by Dolzning et al. (Dolznig et al., 2006).
# [2] = system: CFU-E cells; assay: Colony forming assays of sorted CFU-E fractions (Table S2)
# Text: Separation of BFU-E and CFU-E cells by expression of CD71, CD24a or both CD71 and CD24a. C-kit positive BFU-E and CFU-E cells were sorted from FLEP cells based on expression of CD71, CD24a or both CD71 and CD24a. In all experiments the BFU-E fraction was the subset of c-kit^positive FLEP cells with the 10% lowest expression of CD71 and/or CD24a, while the CFU-E fraction was the subset with 20% highest expression of CD71 and/or CD24a. Sorted BFU-E and CFU-E populations were subjected to colony forming assays under two different conditions.
# The potential of the sorted cells to form large BFU-E, small BFU-E, CFU-G/M/Mk, and CFU-GEMM colonies (±standard deviation) was determined by a second assay in methyl cellulose containing 10U Epo, 20 nM IL-3, 20 nM IL-6 and 50 nM SCF per mL, and was scored at day 8-9. […] To determine the effect of DMOG, colony assays of sorted BFU-E (CD71 and CD24a^10% low) cells were also performed in the presence of 333 μM DMOG.
# Colonies were scored after 3 days. […] The number of hemoglobinized early BFU-E and late BFU-E colonies was determined after 8-9 days following staining with 2,7-Diaminofluorene (Sigma Chemical, St. Louis, Mo.).
# [3] = system: miRNA expression in BFU-E cells; assay: Small RNA (miRNA) sequencing of BFU-E cells cultured 4 hours with or without Dex; details: 100 nM Dex
# Text: FIGS. 2A-2B. The effect of glucocorticoids on miRNA and mRNA expression in BFU-E cells determined by next generation sequencing. […] Both mRNAs and miRNAs were subjected to Illumina deep sequencing. […] (B) A plot similar to that in A for expression of individual mRNAs. mRNA expression was normalized using the RPKM method, which determines the relative expression of each gene to all expressed genes by giving each gene an RPKM count (number of uniquely aligning reads per kb exon per million total reads).
# B) Percent of total miRNA expression of the 20 highest expressed miRNAs. C) Percent of total miRNA expression of the 20 highest expressed miRNA-families.
# Differences in miRNA expression were determined as described previously (Baek et al., 2008). […] Since several miRNAs contain the same seed sequence and therefore target the same group of mRNAs we also compared changes in expression of miRNA families.
# Small RNA sequencing was performed essentially as described (Grimson et al., 2008). […] The adaptor sequence was stripped and aligned to mouse NCBI build 37 (mm9) using ELAND. Reads mapping to the known microRNA hairpins were used for downstream analysis. Reads mapping to miRNA with more than one known copy in the genome were divided equally between the different loci. miRNA analysis methods to compute miRNA expression counts were derived from previously published methods (Baek et al., 2008).
# [4] = dose response curves in the absence of DMOG
# [5] = CD24a 20% high cells, 100 nM Dex
# [6] = CD71 20% high cells, 100 nM Dex
# [7] = CD71 and CD24a 20% high cells (n = 1), line marked +
# [8] = sorted CD71 20% high cells, with Dex
compound,measurement,setting,value
"C[C@@H]1C[C@H]2[C@@H]3CCC4=CC(=O)C=C[C@]4(C)[C@@]3(F)[C@@H](O)C[C@]2(C)[C@@]1(O)C(=O)CO [Dex, dexamethasone]",Increase of total number of cells after the first three days,"[1]; CD24 and CD71 10% low BFU-E cells, 100 nM Dex and/or 333 μM DMOG",~20 fold
same,"Total cell expansion from 1000 ""BFU-E"" cells, liquid culture","[1]; CD24 and CD71 10% low BFU-E cells, SFELE, 100 nM Dex and/or 333 μM DMOG, day 1","3,900"
same,"Total cell expansion from 1000 ""BFU-E"" cells, liquid culture","[1]; CD24 and CD71 10% low BFU-E cells, SFELE, 100 nM Dex and/or 333 μM DMOG, day 2","30,000"
same,"Total cell expansion from 1000 ""BFU-E"" cells, liquid culture","[1]; CD24 and CD71 10% low BFU-E cells, SFELE, 100 nM Dex and/or 333 μM DMOG, day 3","200,000"
same,"Total cell expansion from 1000 ""BFU-E"" cells, liquid culture","[1]; CD24 and CD71 10% low BFU-E cells, SFELE, 100 nM Dex and/or 333 μM DMOG, day 4","1,200,000"
same,"Total cell expansion from 1000 ""BFU-E"" cells, liquid culture","[1]; CD24 and CD71 10% low BFU-E cells, SFELE, 100 nM Dex and/or 333 μM DMOG, day 5","3,500,000"
same,"Total cell expansion from 1000 ""BFU-E"" cells, liquid culture","[1]; CD24 and CD71 10% low BFU-E cells, SFELE, 100 nM Dex and/or 333 μM DMOG, day 6","7,200,000"
same,"Total cell expansion from 1000 ""BFU-E"" cells, liquid culture","[1]; CD24 and CD71 10% low BFU-E cells, SFELE, 100 nM Dex and/or 333 μM DMOG, day 7","14,000,000"
same,"Total cell expansion from 1000 ""BFU-E"" cells, liquid culture","[1]; CD24 and CD71 10% low BFU-E cells, SFELE, 100 nM Dex and/or 333 μM DMOG, day 8","20,000,000"
same,"Total cell expansion from 1000 ""BFU-E"" cells, liquid culture","[1]; CD24 and CD71 10% low BFU-E cells, SFELE, 100 nM Dex and/or 333 μM DMOG, day 9","25,000,000"
same,"Total cell expansion from 1000 ""BFU-E"" cells, liquid culture","[1]; CD24 and CD71 10% low BFU-E cells, SFELE, 100 nM Dex and/or 333 μM DMOG, day 10","25,000,000"
same,"Total cell expansion from 1000 ""BFU-E"" cells, liquid culture","[1]; CD24 and CD71 10% low BFU-E cells, SFELE, 100 nM Dex and/or 333 μM DMOG, day 11","20,000,000"
same,Total cell expansion from 1000 BFU-E cells,"[1]; 100 nM Dex, 24 h","5,367 (±1,626)"
same,Total cell expansion from 1000 BFU-E cells,"[1]; 100 nM Dex, 48 h","50,013 (±18,160)"
same,Total cell expansion from 1000 BFU-E cells,"[1]; 100 nM Dex, 72 h","297,340 (±114,540)"
same,Total cell expansion from 1000 BFU-E cells,"[1]; 100 nM Dex, 120 h","2,484,148 (±988,022)"
same,"Expansion of BFU-E cells, peak","[1]; CD71 10% low cells, SFELE, 100 nM Dex, peak at day 8","8,800 fold"
same,Increase of proliferation of sorted BFU-E cells,"[1]; CD71 and CD24a 10% low cells, SFELE, 100 nM Dex and/or 333 μM DMOG, versus no additions",42 fold
same,Average number of divisions of each BFU-E cell,"[1]; SFELE, 100 nM Dex",13 times
same,Cell number per original BFU-E cell,"[1]; SFELE, 100 nM Dex","8,800 cells per original BFU-E cell"
same,Dex concentrations at which a clear effect on CFU-E formation is seen,[1]; [4],> 2 nM
same,Dex concentrations giving maximum effect on CFU-E formation,[1]; [4],above 10 nM
same,Dex concentration that supports maximal stimulation of BFU-E proliferation,"[1]; dose-response, FIG. 1 C and D",10 nM
same,Dex concentrations with little stimulatory effect on BFU-E proliferation,"[1]; dose-response, FIG. 1 C and D",below 1 nM
same,CFU-G/M/Meg colonies,[2]; [5],0.3 (±0.3) colonies per 1000 plated cells
same,GEMM colonies,[2]; [5],0 colonies per 1000 plated cells
same,large BFU-E colonies,[2]; [5],0.4 (±2) colonies per 1000 plated cells
same,small BFU-E colonies,[2]; [5],15 (±2) colonies per 1000 plated cells
same,CFU-E colonies,[2]; [6],565 (±120) colonies per 1000 plated cells
same,CFU-G/M/Meg colonies,[2]; [6],0 colonies per 1000 plated cells
same,GEMM colonies,[2]; [6],0 colonies per 1000 plated cells
same,large BFU-E colonies,[2]; [6],0 colonies per 1000 plated cells
same,small BFU-E colonies,[2]; [6],17 (±31) colonies per 1000 plated cells
same,CFU-E colonies,[2]; [7],526 colonies per 1000 plated cells
same,CFU-G/M/Meg colonies,[2]; [7],0 colonies per 1000 plated cells
same,GEMM colonies,[2]; [7],0 colonies per 1000 plated cells
same,large BFU-E colonies,[2]; [7],1 colonies per 1000 plated cells
same,small BFU-E colonies,[2]; [7],29 colonies per 1000 plated cells
same,Cells forming early BFU-E-derived colonies,[2]; [8],0%
same,Cells forming late BFU-E-derived colonies,[2]; [8],1.7%
same,Cells forming single-CFU-E colonies,[2]; [8],57%
same,Increase in expression of the 100 highest expressed miRNAs,[3],≤ 50%
same,Increase in miR-451 expression,[3],49%
